In PubChem BioAssay (NCI):
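Exposure lasted 48 hours, with cells grown in 96-well plates and compounds tested at five concentrations. The concentration for full growth arrest is given as TGI.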

What was measured:
Assay in all cases: DTP human tumour cell line panel, 48 h
[1] = tested on: MALME-3M melanoma
[2] = tested on: SF-268 CNS
[3] = tested on: SK-MEL-5 melanoma
[4] = tested on: OVCAR-8 ovarian
[5] = tested on: HOP-92 NSCLC
[6] = tested on: NCI/ADR-RES ovarian
[7] = tested on: A498 renal
[8] = tested on: SF-539 CNS
[9] = tested on: MOLT-4 leukemia
[10] = tested on: IGROV1 ovarian
[11] = tested on: SNB-19 CNS
[12] = tested on: OVCAR-5 ovarian
[13] = tested on: NCI-H226 lung
[14] = tested on: A549 NSCLC
[15] = tested on: U251 CNS
[16] = tested on: SF-295 CNS
[17] = tested on: MCF7 breast
[18] = tested on: OVCAR-3 ovarian
[19] = tested on: OVCAR-4 ovarian
[20] = tested on: K-562 leukemia
[21] = tested on: SK-MEL-28 melanoma
[22] = tested on: SW-620 colon
[23] = tested on: NCI-H23 lung
[24] = tested on: NCI-H522 lung
[25] = tested on: MDA-MB-231 breast
[26] = tested on: HS 578T breast
[27] = tested on: T-47D breast
[28] = tested on: SK-OV-3 ovarian
[29] = tested on: UACC-62 melanoma
[30] = tested on: HCT-15 colon
[31] = tested on: KM12 colon
[32] = tested on: COLO 205 colon
[33] = tested on: RPMI-8226 leukemia
[34] = tested on: SN12C renal
[35] = tested on: CAKI-1 renal
[36] = tested on: SNB-75 CNS
[37] = tested on: LOX IMVI melanoma
[38] = tested on: HT29 colon
[39] = tested on: 786-0 renal
[40] = tested on: MDA-N
[41] = tested on: UACC-257 melanoma
[42] = tested on: M14 melanoma
[43] = tested on: PC-3 prostate
[44] = tested on: BT-549 breast
[45] = tested on: MDA-MB-435
[46] = tested on: UO-31 renal
[47] = tested on: RXF 393 renal
[48] = tested on: HCT-116 colon
[49] = tested on: SK-MEL-2 melanoma
[50] = tested on: TK-10 renal
[51] = tested on: HCC-2998 colon
[52] = tested on: CCRF-CEM leukemia
[53] = tested on: EKVX NSCLC
[54] = tested on: DU-145 prostate
[55] = tested on: ACHN renal
[56] = tested on: HOP-62 NSCLC
[57] = tested on: HL-60(TB) leukemia
[58] = tested on: SR leukemia
[59] = tested on: NCI-H460 lung

Cc1cccc2c(N)c3cccc(C(=O)NCC[N+](C)(C)Cc4sc(N5CCOCC5)nc4[N+](=O)[O-])c3nc12
TGI [1]: 24.7 µM | TGI [2]: > 100 µM | TGI [3]: > 100 µM | TGI [4]: 17.4 µM | TGI [5]: > 100 µM | TGI [6]: 23.3 µM | TGI [7]: 37.3 µM | TGI [8]: 10 µM | TGI [9]: > 100 µM | TGI [10]: > 100 µM | TGI [11]: > 100 µM | TGI [12]: 16.4 µM | TGI [13]: 17.4 µM | TGI [14]: 2.55 µM | TGI [15]: > 100 µM | TGI [16]: 14.3 µM | TGI [17]: 13.5 µM | TGI [18]: 14.6 µM | TGI [19]: 14.4 µM | TGI [20]: > 100 µM | TGI [21]: > 100 µM | TGI [22]: > 100 µM | TGI [23]: 15.3 µM | TGI [24]: 4.54 µM | TGI [25]: 13.1 µM | TGI [26]: 28.5 µM | TGI [27]: > 100 µM | TGI [28]: 6.19 µM | TGI [29]: 18.6 µM | TGI [30]: 13.3 µM | TGI [31]: 17.6 µM | TGI [32]: > 100 µM | TGI [33]: > 100 µM | TGI [34]: > 100 µM | TGI [35]: 4.64 µM | TGI [36]: 22.7 µM | TGI [37]: 3.78 µM | TGI [38]: 2.74 µM | TGI [39]: 6.24 µM | TGI [40]: 21.8 µM | TGI [41]: 43 µM | TGI [42]: 15 µM | TGI [43]: 16.8 µM | TGI [44]: 40.8 µM | TGI [45]: 35.2 µM | TGI [46]: 35.7 µM | TGI [47]: 20.8 µM | TGI [48]: 20.6 µM | TGI [49]: 45.3 µM | TGI [50]: 37.6 µM | TGI [51]: 3.41 µM | TGI [52]: 26.9 µM | TGI [53]: > 100 µM | TGI [54]: > 100 µM | TGI [55]: 2.28 µM | TGI [56]: 7.77 µM

N#CSCC1COc2ccccc2O1 (stereo unspecified)
TGI [1]: > 10 µM | TGI [2]: > 10 µM | TGI [3]: > 10 µM | TGI [4]: > 10 µM | TGI [6]: > 10 µM | TGI [7]: > 10 µM | TGI [8]: > 10 µM | TGI [9]: > 10 µM | TGI [10]: > 10 µM | TGI [11]: > 10 µM | TGI [12]: > 10 µM | TGI [13]: > 10 µM | TGI [14]: > 10 µM | TGI [15]: > 10 µM | TGI [16]: > 10 µM | TGI [17]: > 10 µM | TGI [57]: 8.66 µM | TGI [18]: > 10 µM | TGI [19]: > 10 µM | TGI [58]: > 10 µM | TGI [59]: > 10 µM | TGI [20]: > 10 µM | TGI [21]: > 10 µM | TGI [22]: > 10 µM | TGI [23]: > 10 µM | TGI [24]: 7.05 µM | TGI [25]: > 10 µM | TGI [26]: > 10 µM | TGI [27]: > 10 µM | TGI [28]: > 10 µM | TGI [29]: > 10 µM | TGI [30]: > 10 µM | TGI [31]: > 10 µM | TGI [32]: > 10 µM | TGI [33]: > 10 µM | TGI [34]: > 10 µM | TGI [35]: > 10 µM | TGI [36]: > 10 µM | TGI [37]: > 10 µM | TGI [38]: > 10 µM | TGI [40]: > 10 µM | TGI [42]: > 10 µM | TGI [43]: > 10 µM | TGI [45]: > 10 µM | TGI [46]: > 10 µM | TGI [47]: > 10 µM | TGI [48]: > 10 µM | TGI [49]: > 10 µM | TGI [50]: > 10 µM | TGI [51]: > 10 µM | TGI [52]: 8.3 µM | TGI [53]: > 10 µM | TGI [54]: > 10 µM | TGI [55]: > 10 µM | TGI [56]: > 10 µM
